Results from patent US20240368139A1, “NOVEL MODULATORS OF EHMT1 AND EHMT2 AND THERAPEUTIC USE THEREOF” (Tango Therapeutics, Inc., priority 2021, published 2024).

Legend:
human EHMT2 913-1193 = molecular target: T1, human EHMT2 913-1193 (Homo sapiens, UniProt Q96KQ7); assay: EHMT2 enzyme assay on histone peptide substrate (3H-SAM SPA); conditions: EHMT2 IC50, recombinant human EHMT2 913-1193, histone peptide substrate
T1 sequence (Q96KQ7 913-1193): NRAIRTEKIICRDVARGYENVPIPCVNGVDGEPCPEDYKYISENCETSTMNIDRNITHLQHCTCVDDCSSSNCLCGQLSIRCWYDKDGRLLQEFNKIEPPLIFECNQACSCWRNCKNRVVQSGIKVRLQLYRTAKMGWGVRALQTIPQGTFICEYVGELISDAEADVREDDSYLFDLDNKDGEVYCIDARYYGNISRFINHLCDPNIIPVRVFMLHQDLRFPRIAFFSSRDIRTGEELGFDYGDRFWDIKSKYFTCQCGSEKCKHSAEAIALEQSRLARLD

human EHMT1 982-1266 = molecular target: T2, human EHMT1 982-1266 (Homo sapiens, UniProt Q9H9B1); assay: EHMT1 enzyme assay on histone peptide substrate (3H-SAM SPA); conditions: EHMT1 IC50, recombinant human EHMT1 982-1266, histone peptide substrate
T2 sequence (Q9H9B1 982-1266): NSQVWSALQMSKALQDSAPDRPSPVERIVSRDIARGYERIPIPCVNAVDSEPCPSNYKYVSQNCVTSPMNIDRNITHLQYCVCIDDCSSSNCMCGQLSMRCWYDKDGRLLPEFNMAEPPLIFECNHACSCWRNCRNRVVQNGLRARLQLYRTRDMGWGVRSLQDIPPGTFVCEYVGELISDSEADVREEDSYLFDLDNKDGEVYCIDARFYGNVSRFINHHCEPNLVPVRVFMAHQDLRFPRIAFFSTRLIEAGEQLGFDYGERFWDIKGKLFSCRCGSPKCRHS

H3K9me2 in HCT116 cells = assay: HCT116 H3K9me2 in-cell western assay; format: cell-based; conditions: Homo sapiens, HCT-116, 72 h, HCT116 cells, 72 hours incubation; read-out: H3K9me2 ICW IC50
Text: HCT116 cell line was purchased from ATCC (Manassas, VA, USA). […] Penicillin-Streptomycin and heat inactivated fetal bovine serum were purchased from Hyclone (Logan, UT, USA). DPBS, Corning^R were purchased from VWR (Radnor, PA, USA). Triton′ X-100 was purchased from Sigma (St. Louis, MO, USA). Intercept blocking buffer, DRAQ5, Licor Odyssey Infrared Scanner were purchased from Licor Biosciences (Lincoln, NB, USA). Plate washer was purchased from BioTek (Winooski, VT, USA). […] 16% Paraformaldehyde was purchased from Electron Microscopy Sciences (Hatfield, PA, USA). HCT116 cells were maintained in complete growth medium (RPMI supplemented with 10% heat inactivated fetal bovine serum, 1% Penicillin-Streptomycin) and cultured at 37° C. under 5% CO2. N^2-(4-methoxy-3-(3-(pyrrolidin-1-yl)propoxy)phenyl)-N^4,6-dimethyl]pyrimidine-2,4-diamine (synthesis disclosed in International Application WO2017181177A1) was used as a control compound.
HCT116 cells (ATCC) were trypsinized, counted and seeded in assay medium (RPMI supplemented with 10% heat inactivated fetal bovine serum, 1% Penicillin-Streptomycin) at a concentration of 2,000 cells per well to a 384-well cell culture plate with compounds in 50 μl per well. Plates were incubated with at 37° C. under 5% CO2 for 72 hours. After the incubation, 50 μl per well of 8% paraformaldehyde in PBS was added to the plates and incubated at room temperature for 20 minutes. Plates were transferred to a BioTek (EL406) plate washer and washed 5 times with 110 μl per well of wash buffer (1×PBS containing 0.1% Triton X-100). The plates were next blocked with 50 μl of Intercept blocking buffer for 1 hour at room temperature. Blocking buffer was removed and 30 μl per well of monoclonal primary antibody of H3K9me2 (CST) diluted 1:200 in Intercept blocking buffer were added and plates were incubated overnight at 4° C. The plates were then washed 5 times with 110 μl per well of wash buffer (1×PBS containing 0.1% Triton X-100). Next 30 μl per well of secondary was added (1:400 800 CW goat anti-rabbit IgG in blocking buffer) with 1:1000 DRAQ5 in blocking buffer and incubated for 2 hours at room temperature. The plates were washed 5 times with 110 μl per well of wash buffer (1×PBS containing 0.1% Triton X-100) then with 100 μl per well of water once. Plates were allowed to dry at room temperature then imaged on a Licor Odyssey Infrared Scanner which measured integrated intensity at 700 nm and 800 nm wavelength. Both 700 and 800 channels were scanned.
The average of the ratio values (800 nm/700 nm) for each well was calculated and used to determine the percentage for each test well in the plate. Compounds were serially diluted two-fold in 0.1% DMSO for a total of 10 test concentrations beginning at 10 μM. IC50 curves were generated using duplicate wells per concentration of compound. […] IC50 values were calculated using a non-linear regression of Prism.

| SMILES | IC50 (human EHMT2 913-1193) | IC50 (human EHMT1 982-1266) | IC50 (H3K9me2 in HCT116 cells) |
| --- | --- | --- | --- |
| CNc1cc(C)nc(Nc2cc3c(c(C4=CCNC(CO)CC4)c2F)OCC3)n1 (single isomer, unassigned) [Compound 159-a] | > 2000 nM | 500 to 2000 nM | – |
| CNc1cc(C)nc(Nc2cc3c(c(C4=CCNC(CO)CC4)c2F)OCC3)n1 (single isomer, unassigned) [Compound 159] | 100 to 500 nM | < 100 nM | – |
| CNc1cc(C)nc(Nc2cc3c(c(C4=CCNC(C)CC4)c2Cl)OCCO3)n1 (single isomer, unassigned) [Compound 161-a] | > 2000 nM | 500 to 2000 nM | – |
| CNc1cc(C)nc(Nc2cc3c(c(C4=CCNC(C)CC4)c2Cl)OCCO3)n1 (single isomer, unassigned) [Compound 161] | < 100 nM | < 100 nM | – |
| CNc1cc(C)nc(Nc2cc3c(c(C4=CCNC(C)CC4)c2F)OCCC3)n1 (single isomer, unassigned) [Compound 162] | 500 to 2000 nM | 500 to 2000 nM | – |
| CNc1cc(C)nc(Nc2cc3c(c(C4=CCNC(C)CC4)c2F)OCCO3)n1 (single isomer, unassigned) [Compound 163-a] | > 2000 nM | 500 to 2000 nM | – |
| CNc1cc(C)nc(Nc2cc3c(c(C4=CCNC(C)CC4)c2F)OCCO3)n1 (single isomer, unassigned) [Compound 163] | < 100 nM | < 100 nM | – |
| CNc1cc(C)nc(Nc2cc3c(c(C4=CCNC(C)CC4)c2F)OCCC3)n1 (single isomer, unassigned) [Compound 164] | < 100 nM | < 100 nM | – |
| CNc1cc(C)nc(Nc2cc3c(c(C4=CCNCC(F)C4)c2F)OCC3)n1 (single isomer, unassigned) [Compound 168] | 100 to 500 nM | 100 to 500 nM | – |
| CNc1cc(C)nc(Nc2cc3c(c(C4=CCNC(C)CC4)c2F)OCC3)n1 (single isomer, unassigned) [Compound 184] | 500 to 2000 nM | 100 to 500 nM | – |
| CNc1cc(C)nc(Nc2cc3c(c(C4=CCNC(C(F)F)CC4)c2F)OCC3)n1 (single isomer, unassigned) [Compound 354-a] | > 2000 nM | > 2000 nM | – |
| CNc1cc(C)nc(Nc2cc3c(c(C4=CCNC(C(F)F)CC4)c2F)OCC3)n1 (single isomer, unassigned) [Compound 354] | 100 to 500 nM | < 100 nM | – |
| CNc1cc(C)nc(Nc2cc3c(c(C4=CCNC(C)CC4)c2Cl)OCO3)n1 (single isomer, unassigned) [Compound 356-a] | > 2000 nM | 500 to 2000 nM | – |
| CNc1cc(C)nc(Nc2cc3c(c(C4=CCNC(C)CC4)c2Cl)OCO3)n1 (single isomer, unassigned) [Compound 356] | < 100 nM | < 100 nM | – |
| CNc1cc(C)nc(Nc2cc3c(c(C4=CCNCC(O)C4)c2C)OCCC3)n1 (single isomer, unassigned) [Compound 360] | 500 to 2000 nM | 100 to 500 nM | – |
| CNc1cc(C)nc(Nc2cc3c(c(C4=CCNC(C)CC4)c2Cl)OCCC3)n1 (single isomer, unassigned) [Compound 365] | 500 to 2000 nM | 100 to 500 nM | – |
| CNc1cc(C)nc(Nc2cc3c(c(C4=CCNCC(OC)C4)c2F)OCC3)n1 (single isomer, unassigned) [Compound 366-a] | > 2000 nM | 500 to 2000 nM | – |
| CNc1cc(C)nc(Nc2cc3c(c(C4=CCNCC(OC)C4)c2F)OCC3)n1 (single isomer, unassigned) [Compound 366] | 500 to 2000 nM | 100 to 500 nM | – |
| CNc1cc(C)nc(Nc2cc3c(c(C4=CCNC(C)CC4)c2C)OCCO3)n1 (single isomer, unassigned) [Compound 368] | 100 to 500 nM | 100 to 500 nM | – |

| SMILES | IC50 (human EHMT2 913-1193) | IC50 (human EHMT1 982-1266) | IC50 (H3K9me2 in HCT116 cells) |
| --- | --- | --- | --- |
| CNc1cc(C)nc(Nc2cc3c(c(C4=CCNC(CF)CC4)c2F)OCC3)n1 (single isomer, unassigned) [Compound 371-a] | > 2000 nM | > 2000 nM | – |
| CNc1cc(C)nc(Nc2cc3c(c(C4=CCNC(CF)CC4)c2F)OCC3)n1 (single isomer, unassigned) [Compound 371] | < 100 nM | < 100 nM | – |
| CNc1cc(C)nc(Nc2cc3c(c(C4=CCNC(C)CC4)c2Cl)OCC3)n1 (single isomer, unassigned) [Compound 374-a] | 500 to 2000 nM | 500 to 2000 nM | – |
| CNc1cc(C)nc(Nc2cc3c(c(C4=CCN(C)CC(O)C4)c2C)OCC3)n1 (single isomer, unassigned) [Compound 379] | < 100 nM | < 100 nM | – |
| CNc1cc(C)nc(Nc2cc3c(c(C4=CCNC(C)CC4)c2F)OCO3)n1 (single isomer, unassigned) [Compound 380] | 500 to 2000 nM | 100 to 500 nM | – |
| CNc1cc(C)nc(Nc2cc3c(c(C4=CCNC(C)CC4)c2C)OCC3)n1 (single isomer, unassigned) [Compound 383-a] | 500 to 2000 nM | 500 to 2000 nM | – |
| CNc1cc(C)nc(Nc2cc3c(c(C4=CCNC(C)CC4)c2C)OCCC3)n1 (single isomer, unassigned) [Compound 385-a] | > 2000 nM | > 2000 nM | – |
| CNc1cc(C)nc(Nc2cc3c(c(C4=CCNC(C)CC4)c2C)OCCC3)n1 (single isomer, unassigned) [Compound 385] | 100 to 500 nM | < 100 nM | – |
| CNc1cc(C)nc(Nc2cc3c(c(C4=CCN(C)CC(O)C4)c2Cl)OCCC3)n1 (single isomer, unassigned) [Compound 402] | – | – | < 100 nM |
| CNc1cc(C)nc(Nc2cc3c(c(C4=CCN(C)CCC4)c2F)OCCC3C)n1 (single isomer, unassigned) [Compound 406] | – | – | 100 to 500 nM |
| CNc1cc(C)nc(Nc2cc3c(c(C4=CCNCC(O)C4)c2Cl)OCCC3)n1 (single isomer, unassigned) [Compound 407] | – | – | < 100 nM |
| CNc1cc(C)nc(Nc2cc3c(c(C4=CCNCCC4)c2F)OCCC3C)n1 (single isomer, unassigned) [Compound 414] | – | – | < 100 nM |
| CNc1cc(C)nc(Nc2cc3c(c(C4=CCNCCC4)c2F)OCC[C@@H]3C)n1 (single isomer, unassigned) [Compound 415] | – | – | < 100 nM |
| CNc1cc(C)nc(Nc2cc3c(c(C4=CCN(C)CC(O)C4)c2C)OCCC3)n1 (single isomer, unassigned) [Compound 418] | 100 to 500 nM | < 100 nM | – |
| CNc1cc(C)nc(Nc2cc3c(c(C4=CCN(C)CC(O)C4)c2C)OCCC3)n1 (single isomer, unassigned) [Compound 419] | > 2000 nM | 500 to 2000 nM | – |
| CNc1cc(C)nc(Nc2cc3c(c(C4=CCC(N)CC4)c2F)OCC3)n1 (single isomer, unassigned) [Compound 436] | > 2000 nM | 500 to 2000 nM | – |
| Cc1cc(N(C)C)nc(Nc2cc3c(c(C4=CCNCCC4)c2)OCC3)n1 [Compound 138] | – | – | 100 to 500 nM |
| [2H]Cc1cc(NC([2H])([2H])[2H])nc(Nc2cc3c(c(C4=CCNCCC4)c2)OCCO3)n1 [Compound 216] | < 100 nM | < 100 nM | – |
| CNc1cc(C)nc(Nc2cc3c(c([C@H]4CC[C@H](N)CC4)c2)OCCO3)n1 [Compound 337] | > 2000 nM | 100 to 500 nM | – |
